Results: PubChem BioAssay AID330 (DTP/NCI, 2004)
Values joined by “and” are separate entries in the source; they are usually repeats but may differ in a detail not shown here. Equal values may be shown once. Toxic doses and inconclusive results are not listed. Rule for the calls: active = survival T/C of 150% or more; inactive = T/C below 125% in these data.

Test system: P388 leukemia ip, CD2F1 mice, survival T/C
Experiment: NCI In Vivo Anticancer Drug Screen. Data for tumor model P388 Leukemia (intraperitoneal) in CD2F1 (CDF1) mice
Details: endpoint: median survival time, higher = longer survival
How it was run: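 Mice carrying the transplanted tumor received test compound or vehicle. Survival was recorded in each group, and the value is the treated-group measurement divided by that of the vehicle-treated control group.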

[1] = dose: 75.0 mg/kg/injection, schedule: Q01DX009 (ip), vehicle: saline
[2] = dose: 50.0 mg/kg/injection, schedule: Q01DX009 (ip), vehicle: saline
[3] = dose: 100.0 mg/kg/injection, schedule: Q01DX009 (ip), vehicle: saline
[4] = dose: 50.0 mg/kg/injection, schedule: Q01DX009 (ip), vehicle: Klucel (hydroxypropylcellulose) (HPC)
[5] = dose: 100.0 mg/kg/injection, schedule: Q01DX009 (ip), vehicle: Klucel (hydroxypropylcellulose) (HPC)
[6] = dose: 100.0 mg/kg/injection, schedule: Q04DX003 (ip), vehicle: saline with Tween-80
[7] = dose: 200.0 mg/kg/injection, schedule: Q04DX003 (ip), vehicle: saline with Tween-80
[8] = dose: 50.0 mg/kg/injection, schedule: Q01DX009 (ip), vehicle: saline with Tween-80
[9] = dose: 100.0 mg/kg/injection, schedule: Q01DX009 (ip), vehicle: saline with Tween-80
[10] = dose: 200.0 mg/kg/injection, schedule: Q01DX009 (ip), vehicle: saline with Tween-80
[11] = dose: 50.0 mg/kg/injection, schedule: Q01DX005 (ip), vehicle: saline with Tween-80
[12] = dose: 50.0 mg/kg/injection, schedule: Q01DX005 (ip), vehicle: Klucel (hydroxypropylcellulose) (HPC)
[13] = dose: 100.0 mg/kg/injection, schedule: Q01DX005 (ip), vehicle: Klucel (hydroxypropylcellulose) (HPC)
[14] = dose: 200.0 mg/kg/injection, schedule: Q01DX005 (ip), vehicle: Klucel (hydroxypropylcellulose) (HPC)
[15] = dose: 400.0 mg/kg/injection, schedule: Q04DX003 (ip), vehicle: saline with Tween-80
[16] = dose: 50.0 mg/kg/injection, schedule: Q01DX005 (ip), vehicle: saline
[17] = dose: 100.0 mg/kg/injection, schedule: Q01DX005 (ip), vehicle: saline
[18] = dose: 200.0 mg/kg/injection, schedule: Q01DX005 (ip), vehicle: saline
[19] = dose: 60.0 mg/kg/injection, schedule: Q01DX005 (ip), vehicle: saline with Tween-80
[20] = dose: 120.0 mg/kg/injection, schedule: Q01DX005 (ip), vehicle: saline with Tween-80

Measured: T/C

O=C1C2CC(CN3CCCCC23)C2CCCCN12 (stereo unspecified)
inactive: dose: 6.2 mg/kg/injection, schedule: Q01DX007 (ip), vehicle: carboxymethylcellulose (CMC) 100 % of control | dose: 12.5 mg/kg/injection, schedule: Q01DX007 (ip), vehicle: carboxymethylcellulose (CMC) 91 % of control | dose: 25.0 mg/kg/injection, schedule: Q01DX007 (ip), vehicle: carboxymethylcellulose (CMC) 91 % of control | dose: 37.5 mg/kg/injection, schedule: Q01DX009 (ip), vehicle: saline 95 % of control | [1] 102 % of control | dose: 150.0 mg/kg/injection, schedule: Q01DX009 (ip), vehicle: saline 101 % of control

CC(=NCC(=O)O)c1ccccc1
inactive: dose: 25.0 mg/kg/injection, schedule: Q01DX009 (ip), vehicle: saline 104 % of control | [2] 111 % of control | [3] 109 % of control

CC(C)c1ccc(C(CC(=O)C(C)(C)C)C(C(=O)O)c2ccc([N+](=O)[O-])cc2)cc1 (stereo unspecified)
inactive: [4] 109 % of control | [5] 108 % of control

CCN(CC)Cc1cc(Nc2c3ccccc3nc3cc(Cl)ccc23)ccc1O
inactive: dose: 33.0 mg/kg/injection, schedule: Q01DX009 (ip), vehicle: saline 100 % of control | [2] 109 % of control | [1] 122 % of control

CC(=O)NC(C(=O)N1CCCC1)=C(C)C
inactive: dose: 100.0 mg/kg/injection, schedule: Q04DX002 (ip), vehicle: saline 100 % of control | dose: 200.0 mg/kg/injection, schedule: Q04DX002 (ip), vehicle: saline 98 % of control | dose: 400.0 mg/kg/injection, schedule: Q04DX002 (ip), vehicle: saline 107 % of control

Cc1nc2[nH]c(=O)[nH]c(=O)c2[nH]1
inactive: [6] 100 % of control | [7] 113 % of control

NNC(=O)CCc1ccccc1Br
inactive: [8] 100 % of control and 90 % of control | dose: 50.0 mg/kg/injection, schedule: Q04DX003 (ip), vehicle: saline with Tween-80 104 % of control | [9] 100 % of control | [6] 90 % of control | [10] 95 % of control | [7] 90 % of control

N=C(N)SCN1C(=O)c2ccccc2C1=O
inactive: dose: 6.25 mg/kg/injection, schedule: Q01DX009 (ip), vehicle: saline with Tween-80 114 % of control | dose: 12.5 mg/kg/injection, schedule: Q01DX009 (ip), vehicle: saline with Tween-80 107 % of control | dose: 25.0 mg/kg/injection, schedule: Q01DX009 (ip), vehicle: saline with Tween-80 123 % of control | [8] 122 % of control

CCCC1N=C(N)N=C(N)N1c1ccc(OC)cc1 (stereo unspecified)
inactive: dose: 12.5 mg/kg/injection, schedule: Q01DX005 (ip), vehicle: saline with Tween-80 100 % of control | dose: 25.0 mg/kg/injection, schedule: Q01DX005 (ip), vehicle: saline with Tween-80 103 % of control | [11] 101 % of control and 106 % of control

COc1cccc(/C=N/N(C)c2c([N+](=O)[O-])cc(C(F)(F)F)cc2[N+](=O)[O-])c1O
inactive: dose: 60.0 mg/kg/injection, schedule: Q01DX005 (ip), vehicle: Klucel (hydroxypropylcellulose) (HPC) 93 % of control | dose: 120.0 mg/kg/injection, schedule: Q01DX005 (ip), vehicle: Klucel (hydroxypropylcellulose) (HPC) 92 % of control | dose: 240.0 mg/kg/injection, schedule: Q01DX005 (ip), vehicle: Klucel (hydroxypropylcellulose) (HPC) 87 % of control

O=c1[nH]c(=S)[nH]cc1Oc1ccc(Cl)cc1Cl
inactive: [8] 94 % of control | [9] 93 % of control | [10] 95 % of control | dose: 400.0 mg/kg/injection, schedule: Q01DX009 (ip), vehicle: saline with Tween-80 108 % of control

Cc1cc(=O)c(C(=O)NC=O)c(C)o1
inactive: [12] 99 % of control | [13] 101 % of control | [14] 117 % of control

CCCC/[N+]([O-])=N/O
inactive: dose: 3.0 mg/kg/injection, schedule: Q01DX005 (ip), vehicle: Klucel (hydroxypropylcellulose) (HPC) 103 % of control | dose: 6.0 mg/kg/injection, schedule: Q01DX005 (ip), vehicle: Klucel (hydroxypropylcellulose) (HPC) 95 % of control | dose: 12.0 mg/kg/injection, schedule: Q01DX005 (ip), vehicle: Klucel (hydroxypropylcellulose) (HPC) 100 % of control | dose: 24.0 mg/kg/injection, schedule: Q01DX005 (ip), vehicle: Klucel (hydroxypropylcellulose) (HPC) 101 % of control

CC(=O)OC1(c2nccc3ccccc23)CCN(Cc2ccccc2)CC1
inactive: [4] 106 % of control | [5] 106 % of control | dose: 200.0 mg/kg/injection, schedule: Q01DX009 (ip), vehicle: Klucel (hydroxypropylcellulose) (HPC) 102 % of control

O=C(O)C1=C(/C=C/Cl)CC1
inactive: [8] 102 % of control | [9] 96 % of control | [10] 99 % of control

OC(Cc1cnc2ccccc2n1)(C(F)(F)F)C(F)(F)F
inactive: [6] 109 % of control | [7] 95 % of control | [15] 90 % of control

CC(Cc1ccc(O)c(O)c1)C(C)Cc1ccc(O)c(O)c1 (stereo unspecified)
inactive: [3] 98 % of control and 106 % of control | dose: 200.0 mg/kg/injection, schedule: Q01DX009 (ip), vehicle: saline 101 % of control and 102 % of control | dose: 400.0 mg/kg/injection, schedule: Q01DX009 (ip), vehicle: saline 105 % of control and 94 % of control | dose: 600.0 mg/kg/injection, schedule: Q01DX009 (ip), vehicle: saline 98 % of control and 90 % of control

NNC1=NCCS1
inactive: dose: 0.31 mg/kg/injection, schedule: Q01DX009 (ip), vehicle: saline with Tween-80 101 % of control | dose: 0.62 mg/kg/injection, schedule: Q01DX009 (ip), vehicle: saline with Tween-80 98 % of control | dose: 1.25 mg/kg/injection, schedule: Q01DX009 (ip), vehicle: saline with Tween-80 104 % of control

CCOC(CN)(OCC)c1ccncc1
inactive: [16] 102 % of control | [17] 101 % of control | [18] 101 % of control

CC(O)CN(CCN(CC(C)O)CC(C)O)CC(C)O (stereo unspecified)
inactive: [16] 105 % of control | [17] 103 % of control | [18] 103 % of control

Nc1nnc2cc(Cl)ccc2n1
inactive: dose: 25.0 mg/kg/injection, schedule: Q01DX005 (ip), vehicle: Klucel (hydroxypropylcellulose) (HPC) 98 % of control | [12] 96 % of control | [13] 98 % of control | [14] 98 % of control

COC(=O)C(=O)c1c(C(=O)OC)nc2nnc(N)n2c1-c1cccc([N+](=O)[O-])c1
inactive: dose: 15.0 mg/kg/injection, schedule: Q01DX005 (ip), vehicle: saline with Tween-80 92 % of control | dose: 30.0 mg/kg/injection, schedule: Q01DX005 (ip), vehicle: saline with Tween-80 91 % of control | [19] 88 % of control | [20] 86 % of control

CCCCCN(CCCCC)CC(O)c1ccc(Cl)c2ccccc12 (stereo unspecified)
inactive: [11] 103 % of control | dose: 100.0 mg/kg/injection, schedule: Q01DX005 (ip), vehicle: saline with Tween-80 106 % of control | dose: 200.0 mg/kg/injection, schedule: Q01DX005 (ip), vehicle: saline with Tween-80 103 % of control

O=C1NC(=O)C(c2ccccc2)(c2ccc(O)cc2)N1 (stereo unspecified)
inactive: [6] 115 % of control | [7] 110 % of control | [15] 115 % of control

O=C(CCl)N1CCN(c2ccccn2)CC1
inactive: [19] 109 % of control | [20] 110 % of control | dose: 240.0 mg/kg/injection, schedule: Q01DX005 (ip), vehicle: saline with Tween-80 116 % of control

CC1=C(C)C(=O)O[C@@H]([C@](C)(O)[C@]2(O)CC[C@@]3(O)[C@@H]4C[C@H](O)[C@]5(O)[C@@H](O)C=CC(=O)[C@]5(C)[C@H]4CC[C@]23C)C1
inactive: dose: 4.0 mg/kg/injection, schedule: Q01DX005 (ip), vehicle: distilled water + Tween-80 100 % of control | dose: 8.0 mg/kg/injection, schedule: Q01DX005 (ip), vehicle: distilled water + Tween-80 102 % of control | dose: 16.0 mg/kg/injection, schedule: Q01DX005 (ip), vehicle: distilled water + Tween-80 107 % of control | dose: 32.0 mg/kg/injection, schedule: Q01DX005 (ip), vehicle: distilled water + Tween-80 106 % of control and 112 % of control | dose: 64.0 mg/kg/injection, schedule: Q01DX005 (ip), vehicle: distilled water + Tween-80 99 % of control and 107 % of control | dose: 128.0 mg/kg/injection, schedule: Q01DX005 (ip), vehicle: distilled water + Tween-80 99 % of control
